Assay results from patent publication US20230000813A1, “COMPOUND FOR THE TREATMENT OF BOVINE OR SWINE RESPIRATORY DISEASE” (Intervet Inc., priority 2016, published 2023).
Values after ≈ are worked out from the molar mass of the structure shown. Like-named read-outs stand apart in the source and are kept apart here.

Experiments:
Experiment in all cases: MIC, broth-microdilution (CLSI VET01-A4)
Format in all cases: cell-based
[1] = test system: Mannheimia haemolytica MH 12587 (1071, BRD field isolate, macrolide-resistance: erm+, E+); conditions: Mannheimia haemolytica MH 12587, macrolide-resistant
Procedure: (§1) The Minimum inhibitory concentrations (MIC) of compounds according to the invention for a number of veterinary bacterial pathogens were determined by the broth-microdilution method according to CLSI document VET01-A4.
(§2) Microdilution trays containing a doubling dilution series of the test compound were used for the tests. The MIC results were interpreted according to the CLSI documents VET01-S3. The lowest concentration of compound at which no visible growth (i.e. no turbidity) detected by the unaided eye was recorded as the MIC.
(§3) The Minimum inhibitory concentrations (MIC) of compounds according to the invention were determined by the broth-microdilution method according to CLSI document VET01-A4.
(§4) Microdilution trays containing a doubling dilution series of the test compound were used for the tests.
(§5) The MIC results were interpreted according to the CLSI documents VET01-S3. The lowest concentration of compound at which no visible growth (i.e. no turbidity) detected by the unaided eye was recorded as the MIC.

[2] = test system: Mannheimia haemolytica MH 6357 (M7/2, reference strain, cattle infection strain); conditions: Mannheimia haemolytica MH 6357; read-out: MIC MH 6357
Procedure: as §1, §2, §3, §4, §5

[3] = test system: Pasteurella multocida PM 6391 (ATCC 43137, reference strain); conditions: Pasteurella multocida PM 6391; for MIC: read-out: MIC PM 6391
Procedure: as §1, §2, §3, §4, §5

[4] = test system: Mannheimia haemolytica MH 10720 (154, BRD field isolate); conditions: Mannheimia haemolytica MH 10720; for MIC: read-out: MIC MH 10720
Procedure: as §1, §2, §3, §4, §5

[5] = test system: Pasteurella multocida PM 12080 (IV102277-0093, BRD field isolate); conditions: Pasteurella multocida PM 12080; for MIC: read-out: MIC PM 12080
Procedure: as §1, §2, §3, §4, §5

[6] = test system: Pasteurella multocida PM 6267 (P 2225 (L386), reference strain, mouse infection strain); conditions: Pasteurella multocida PM 6267; for MIC: read-out: MIC PM 6267
Procedure: as §1, §2, §3, §4, §5

[7] = test system: Mannheimia haemolytica MH 6374 (ATCC 33396, reference strain); conditions: Mannheimia haemolytica MH 6374, read-out: MIC MH 6374
Procedure: as §1, §2, §3, §4, §5

[8] = test system: Mannheimia haemolytica MH 13093 (XB0472-6014.1, BRD field isolate)
Procedure: as §1, §2

[9] = test system: Mannheimia haemolytica MH 13065 (XB0446-6003.9, BRD field isolate)
Procedure: as §1, §2

[10] = test system: Pasteurella multocida PM 10775 (080130003051, BRD field isolate); conditions: Pasteurella multocida PM 10775
Procedure: as §1, §2, §3, §4, §5

Compound | MIC MH 12587 [1] [µM] | MIC [2] [µM] | MIC [3] [µM] | MIC [4] [µM] | MIC PM 12080 [5] | MIC [6] [µM] | MIC [7] [µM] | MIC [8] [µM] | MIC [9] [µM] | MIC PM 6391 [3] | MIC [5] [µM] | MIC PM 6267 [6] | MIC PM 10775 [10] | MIC MH 10720 [4] | MIC ([3]; ATCC43137) [µM] | MIC ([7]; ATCC33396) [µM]
CC(C)(N)C(NC(=O)c1ccc(C#Cc2ccc(CNCc3ccco3)nc2)cc1)C(=O)NO (racemic) [Compound 548] | 1.6 (≈ 0.738 µg/mL) | 1.6 (≈ 0.738 µg/mL) | 0.2 (≈ 0.0923 µg/mL) | 0.2 (≈ 0.0923 µg/mL) | <=0.1 μM | 1.6 (≈ 0.738 µg/mL) | 0.8 (≈ 0.369 µg/mL) | 1.6 (≈ 0.738 µg/mL) | 0.8 (≈ 0.369 µg/mL) |  |  |  |  |  |  | 
CC(C)(N)C(NC(=O)c1ccc(C#Cc2ccc(CNCc3cccs3)nc2)cc1)C(=O)NO (racemic) [Compound 549] | 1.6 (≈ 0.764 µg/mL) | 0.8 (≈ 0.382 µg/mL) |  | 0.4 (≈ 0.191 µg/mL) | <=0.1 μM | 0.8 (≈ 0.382 µg/mL) | 0.4 (≈ 0.191 µg/mL) | 1.6 (≈ 0.764 µg/mL) | 0.8 (≈ 0.382 µg/mL) | <=0.1 μM |  |  |  |  |  | 
C[C@@H](O)[C@H](NC(=O)c1ccc(C#Cc2ccc(CNCC3CCCO3)s2)cc1)C(=O)NO (stereo partly drawn) [C. 412] | 1.6 (≈ 0.732 µg/mL) | 0.8 (≈ 0.366 µg/mL) | 0.2 (≈ 0.0915 µg/mL) |  |  |  | 0.8 (≈ 0.366 µg/mL) | 1.6 (≈ 0.732 µg/mL) | 0.8 (≈ 0.366 µg/mL) |  | 0.4 (≈ 0.183 µg/mL) | <=0.1 μM | <=0.1 μM |  |  | 
C[C@@H](O)[C@H](NC(=O)c1ccc(C#Cc2ccc(CNC3CC3)nc2)cc1)C(=O)NO [C. 413] | 0.8 (≈ 0.327 µg/mL) | 0.4 (≈ 0.163 µg/mL) |  |  | <=0.1 μM |  | 0.8 (≈ 0.327 µg/mL) | 0.4 (≈ 0.163 µg/mL) | 0.4 (≈ 0.163 µg/mL) | <=0.1 μM |  | <=0.1 μM | <=0.1 μM |  |  | 
CC(C)(N)C(NC(=O)c1ccc(C#Cc2ccc(CNCc3ccco3)cc2)cc1)C(=O)NO (stereo not drawn) [C. 518] | 0.8 (≈ 0.368 µg/mL) | 0.8 (≈ 0.368 µg/mL) |  |  | <=0.1 μM | 0.8 (≈ 0.368 µg/mL) | 0.4 (≈ 0.184 µg/mL) | 0.8 (≈ 0.368 µg/mL) | 0.8 (≈ 0.368 µg/mL) |  |  |  |  | <=0.1 μM |  | 
CC(C)(N)C(NC(=O)c1ccc(C#Cc2ccc(CNC3CC3)s2)cc1)C(=O)NO (stereo not drawn) [C. 521] | 0.8 (≈ 0.341 µg/mL) | 0.8 (≈ 0.341 µg/mL) |  |  | <=0.1 μM | 0.8 (≈ 0.341 µg/mL) | 0.4 (≈ 0.171 µg/mL) | 0.8 (≈ 0.341 µg/mL) | 1.6 (≈ 0.682 µg/mL) | <=0.1 μM |  |  |  | <=0.1 μM |  | 
C=CCNCc1ccc(C#Cc2ccc(C(=O)NC(C(=O)NO)C(C)(C)N)cc2)s1 (stereo not drawn) [C. 522] | 1.6 (≈ 0.682 µg/mL) | 1.6 (≈ 0.682 µg/mL) | 0.2 (≈ 0.0853 µg/mL) | 0.2 (≈ 0.0853 µg/mL) | <=0.1 μM | 1.6 (≈ 0.682 µg/mL) | 0.4 (≈ 0.171 µg/mL) | 1.6 (≈ 0.682 µg/mL) | 0.8 (≈ 0.341 µg/mL) |  |  |  |  |  |  | 
CC(C)(N)C(NC(=O)c1ccc(C#Cc2ccc([N+](=O)[O-])cc2)cc1)C(=O)NO (stereo not drawn) [C. 552, N-[2-amino-1-(hydroxycarbamoyl)-2-methyl-propyl]-4-[2-(4-nitrophenyl)ethynyl]benzamide] |  | 0.8 (≈ 0.317 µg/mL) |  | 0.2 (≈ 0.0793 µg/mL) |  | 0.8 (≈ 0.317 µg/mL) |  | 0.8 (≈ 0.317 µg/mL) | 0.8 (≈ 0.317 µg/mL) |  | ≤ 0.1 |  |  |  | ≤ 0.1 | 0.2 (≈ 0.0793 µg/mL)
CC(C)(N)C(NC(=O)c1ccc(C#Cc2ccc(N)cc2)cc1)C(=O)NO (stereo not drawn) [C. 553, N-(3-amino-1-(hydroxyamino)-3-methyl-1-oxobutan-2-yl)-4-((4-aminophenyl)ethynyl)benzamide] |  | 0.8 (≈ 0.293 µg/mL) |  | 0.2 (≈ 0.0733 µg/mL) |  | 0.8 (≈ 0.293 µg/mL) |  | 0.8 (≈ 0.293 µg/mL) | 1.6 (≈ 0.586 µg/mL) |  | ≤ 0.1 |  |  |  | ≤ 0.1 | 0.4 (≈ 0.147 µg/mL)
COc1ccc(CNCc2ccc(C#Cc3ccc(C(=O)NC(C(=O)NO)C(C)(C)N)cc3)cc2)cc1 (stereo not drawn) [Compound 513] | 1.6 (≈ 0.801 µg/mL) | 1.6 (≈ 0.801 µg/mL) | 0.2 (≈ 0.1 µg/mL) | 0.2 (≈ 0.1 µg/mL) |  | 1.6 (≈ 0.801 µg/mL) | 0.8 (≈ 0.4 µg/mL) | 1.6 (≈ 0.801 µg/mL) | 1.6 (≈ 0.801 µg/mL) |  | 0.2 (≈ 0.1 µg/mL) |  |  |  |  | 
